The target of one assay is T1, human Gcg receptor (Homo sapiens, UniProt P47871).
T1 construct: expressed in transfected cells; crude membranes
The experiment in a line: [125I]-Glucagon binding (SPA), human Gcg receptor. The conditions noted are these: read-out: hGLcgR Ki, nM (SEM, n). The essentials:
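Cell pellets were lysed in hypotonic Tris buffer, pH 7.5, homogenized, and spun at low then high speed to give crude membranes. Ki was derived from the fitted IC50.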

The next assay concerns the target T2, human GIP receptor (Homo sapiens, UniProt P48546).
T2 construct: expressed in transfected cells; crude membranes
T2 sequence (P48546 22-466): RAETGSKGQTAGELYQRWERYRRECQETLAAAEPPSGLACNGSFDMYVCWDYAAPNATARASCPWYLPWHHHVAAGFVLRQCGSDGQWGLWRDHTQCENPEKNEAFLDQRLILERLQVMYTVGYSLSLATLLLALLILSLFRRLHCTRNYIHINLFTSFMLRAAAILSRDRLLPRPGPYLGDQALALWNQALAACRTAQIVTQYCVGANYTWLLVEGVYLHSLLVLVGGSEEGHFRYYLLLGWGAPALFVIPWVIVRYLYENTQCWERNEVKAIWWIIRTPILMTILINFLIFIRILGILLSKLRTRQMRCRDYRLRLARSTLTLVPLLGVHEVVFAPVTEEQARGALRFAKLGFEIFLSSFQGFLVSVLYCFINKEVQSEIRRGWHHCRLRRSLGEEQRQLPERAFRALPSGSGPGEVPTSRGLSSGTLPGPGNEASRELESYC
The assay can be described thus: [125I]-GIP binding (SPA), human GIP receptor. The conditions noted are these: read-out: hGIPR Ki, nM (SEM, n).

In assay [1] the target is T3, gastric inhibitory peptide receptor (GIPR) (Homo sapiens, UniProt P48546).
T3 sequence (P48546 22-466): T2 sequence (P48546 22-466)
The assay can be described thus: cAMP pharmacological functional assay in presence of casein, hGIPR. Format: cell-based. The settings on record: HEK293 cells expressing hGIPR, 0.1% Casein, geometric mean; read-out: hGIPR cAMP Rel EC50 nM (SEM, n).

The next assay addresses human GLP-1R (Homo sapiens, UniProt P43220). The assay can be described thus: [125I]-GLP-1 binding (SPA), human GLP-1 receptor. Also noted: expressed in transfected cells; crude membranes. The conditions noted are these: read-out: hGLP1R Ki, (nM) (SEM, n). The gist of the method:
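Ki values are geometric means with SEM over independent replicates on different days, derived from IC50s fitted by four-parameter nonlinear regression. The assay used crude cell membranes in HEPES buffer, pH 7.4, containing CaCl2, MgCl2, bacitracin and TWEEN-20.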

Assay [2] has as its target human GLP-1 receptor (GLP-1R) (Homo sapiens, UniProt P43220). The experiment in a line: cAMP pharmacological functional assay in presence of casein, hGLP-1R. Format: cell-based. The settings on record: HEK293 cells expressing hGLP-1R, 0.1% Casein, geometric mean; read-out: hGLP1R cAMP Rel EC50 nM (SEM, n).

Numbered stars: 1 amine (or outer) side, 2 acyl side, 3 side chain; on linkers, the order of the positions; unused ones are H or OH. Square brackets hold non-standard residues; d marks the D form. Side chains are listed from the residue outwards. Peptide text beside a SMILES is read from it. * marks the point of attachment. C18 diacid = O=C(O)CCCCCCCCCCCCCCCCC(=O)*; γGlu = O=C(O)[C@H](CCC(=O)[*:2])N[*:1]; αMeF = C[C@](N)(Cc1ccccc1)C(=O)O; AEEA = NCCOCCOCC(=O)O; Aib = CC(C)(N)C(=O)O

The term Ki denotes the dissociation constant of the complex between target and ligand, obtained from inhibition or displacement. The term EC50 denotes the concentration that produces a half-maximal response.

T1 sequence (P47871 26-477): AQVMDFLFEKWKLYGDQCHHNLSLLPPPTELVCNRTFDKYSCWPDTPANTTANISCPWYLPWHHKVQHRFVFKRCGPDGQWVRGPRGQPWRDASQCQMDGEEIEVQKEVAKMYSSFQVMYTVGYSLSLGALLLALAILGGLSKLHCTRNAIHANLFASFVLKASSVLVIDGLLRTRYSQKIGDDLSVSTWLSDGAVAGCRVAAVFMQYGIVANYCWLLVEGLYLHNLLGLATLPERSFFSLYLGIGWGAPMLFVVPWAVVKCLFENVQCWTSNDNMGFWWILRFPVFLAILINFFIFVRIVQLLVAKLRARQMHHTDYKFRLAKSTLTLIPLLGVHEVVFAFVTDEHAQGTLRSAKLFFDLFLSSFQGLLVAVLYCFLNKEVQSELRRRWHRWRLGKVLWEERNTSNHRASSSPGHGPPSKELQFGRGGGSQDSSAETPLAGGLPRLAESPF
Chain of human GLP-1R (P43220 24-463): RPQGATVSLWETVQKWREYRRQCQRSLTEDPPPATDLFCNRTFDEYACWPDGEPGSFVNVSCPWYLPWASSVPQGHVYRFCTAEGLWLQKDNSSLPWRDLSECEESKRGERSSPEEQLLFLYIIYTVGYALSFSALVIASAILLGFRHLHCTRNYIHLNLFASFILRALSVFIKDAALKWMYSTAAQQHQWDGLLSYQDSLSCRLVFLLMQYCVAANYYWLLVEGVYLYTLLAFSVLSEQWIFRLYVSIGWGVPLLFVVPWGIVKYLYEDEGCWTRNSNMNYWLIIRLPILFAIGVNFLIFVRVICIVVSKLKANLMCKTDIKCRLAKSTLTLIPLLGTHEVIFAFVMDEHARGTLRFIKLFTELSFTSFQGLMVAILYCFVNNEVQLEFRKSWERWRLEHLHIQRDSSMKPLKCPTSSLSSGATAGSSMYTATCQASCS
Chain of human GLP-1 receptor (GLP-1R) (P43220 24-463): as above

As for `CC[C@H](C)[C@H](NC(=O)[C@H](CC(C)C)NC(=O)[C@H](Cc1ccc(O)cc1)NC(=O)[C@H](CCC(=O)O)NC(=O)[C@@H](NC(=O)[C@H](Cc1ccccc1)NC(=O)[C@H](C)NC(=O)[C@H](CCCCN)NC(=O)[C@H](CCC(N)=O)NC(=O)[C@H](C)NC(=O)[C@H](CCCCNC(=O)COCCOCCNC(=O)COCCOCCNC(=O)CC[C@H](NC(=O)CCCCCCCCCCCCCCCCC(=O)O)C(=O)O)NC(=O)[C@H](CCCCN)NC(=O)[C@H](CC(=O)O)NC(=O)[C@H](CC(C)C)NC(=O)[C@H](CC(C)C)NC(=O)[C@@H](NC(=O)[C@H](CO)NC(=O)[C@H](Cc1ccc(O)cc1)NC(=O)[C@H](CC(=O)O)NC(=O)[C@H](CO)NC(=O)[C@@H](NC(=O)[C@H](Cc1ccccc1)NC(=O)[C@@H](NC(=O)CNC(=O)[C@H](CCC(=O)O)NC(=O)C(C)(C)NC(=O)[C@@H](N)Cc1ccc(O)cc1)[C@@H](C)O)[C@@H](C)O)[C@@H](C)CC)[C@@H](C)CC)C(=O)N[C@@H](CCC(=O)O)C(=O)NCC(=O)NCC(=O)N1CCC[C@H]1C(=O)N[C@@H](CO)C(=O)N[C@@H](CO)C(=O)NCC(N)=O` [Example 296] (H-Y[Aib]EGTFTSDYSILLDKK([AEEA-AEEA-γGlu-C18 diacid])AQKAFIEYLIEGGPSSG-NH2), the inhibition constant Ki was above 1000 nM on human Gcg receptor, 0.444 nM on human GIP receptor and 3.33 nM on human GLP-1R. For the same compound, the EC50 in assay [1] amounted to 0.198 nM; in assay [2], 0.0867 nM.

Regarding `CC[C@H](C)[C@H](NC(=O)[C@H](CC(C)C)NC(=O)[C@H](Cc1ccc(O)cc1)NC(=O)[C@H](CCC(=O)O)NC(=O)[C@@H](NC(=O)[C@H](Cc1ccccc1)NC(=O)[C@H](CCC(=O)O)NC(=O)C(C)(C)NC(=O)[C@H](CCC(N)=O)NC(=O)[C@H](C)NC(=O)[C@H](CCCCNC(=O)COCCOCCNC(=O)COCCOCCNC(=O)CC[C@H](NC(=O)CCCCCCCCCCCCCCCCC(=O)O)C(=O)O)NC(=O)[C@H](CCCCN)NC(=O)[C@H](CC(=O)O)NC(=O)[C@H](CC(C)C)NC(=O)[C@H](CC(C)C)NC(=O)[C@@H](NC(=O)[C@H](CO)NC(=O)[C@H](Cc1ccc(O)cc1)NC(=O)[C@H](CC(=O)O)NC(=O)[C@H](CO)NC(=O)[C@@H](NC(=O)[C@H](Cc1ccccc1)NC(=O)[C@@H](NC(=O)CNC(=O)[C@H](CCC(=O)O)NC(=O)C(C)(C)NC(=O)[C@@H](N)Cc1ccc(O)cc1)[C@@H](C)O)[C@@H](C)O)[C@@H](C)CC)[C@@H](C)CC)C(=O)N[C@@H](C)C(=O)NCC(=O)NCC(N)=O` [Example 297] (H-Y[Aib]EGTFTSDYSILLDKK([AEEA-AEEA-γGlu-C18 diacid])AQ[Aib]EFIEYLIAGG-NH2), the Ki was above 1240 nM at human Gcg receptor, 0.0958 nM at human GIP receptor and 2.98 nM at human GLP-1R. For the same compound, the EC50 worked out at 0.0451 nM in assay [1] and 0.111 nM in assay [2].

On to `CC[C@H](C)[C@H](NC(=O)[C@H](CC(C)C)NC(=O)[C@H](Cc1ccc(O)cc1)NC(=O)[C@H](CCC(=O)O)NC(=O)[C@H](CC(C)C)NC(=O)[C@H](Cc1ccccc1)NC(=O)[C@H](C)NC(=O)C(C)(C)NC(=O)[C@H](CCC(N)=O)NC(=O)[C@H](C)NC(=O)[C@H](CCCCNC(=O)COCCOCCNC(=O)COCCOCCNC(=O)CC[C@H](NC(=O)CCCCCCCCCCCCCCCCC(=O)O)C(=O)O)NC(=O)[C@H](CCCCN)NC(=O)[C@H](CC(=O)O)NC(=O)[C@H](CC(C)C)NC(=O)[C@H](CC(C)C)NC(=O)[C@@H](NC(=O)[C@H](CO)NC(=O)[C@H](Cc1ccc(O)cc1)NC(=O)[C@H](CC(=O)O)NC(=O)[C@H](CO)NC(=O)[C@@H](NC(=O)[C@H](Cc1ccccc1)NC(=O)[C@@H](NC(=O)CNC(=O)[C@H](CCC(=O)O)NC(=O)C(C)(C)NC(=O)[C@@H](N)Cc1ccc(O)cc1)[C@@H](C)O)[C@@H](C)O)[C@@H](C)CC)C(=O)N[C@@H](CCC(=O)O)C(=O)NCC(=O)NCC(=O)N1CCC[C@H]1C(=O)N[C@@H](CO)C(=O)N[C@@H](CO)C(=O)NCC(N)=O` [Example 299] (H-Y[Aib]EGTFTSDYSILLDKK([AEEA-AEEA-γGlu-C18 diacid])AQ[Aib]AFLEYLIEGGPSSG-NH2), for which the inhibitory constant (Ki) was above 1040 nM at human Gcg receptor, 0.734 nM at human GIP receptor and 54.3 nM on human GLP-1R. Also, the EC50 came out at 0.932 nM in assay [1] and 2.54 nM in assay [2].

With `CC[C@H](C)[C@H](NC(=O)[C@H](CC(C)C)NC(=O)[C@H](Cc1ccc(O)cc1)NC(=O)[C@H](CCC(=O)O)NC(=O)[C@@H](NC(=O)[C@H](Cc1ccccc1)NC(=O)[C@H](C)NC(=O)C(C)(C)NC(=O)[C@H](CCC(N)=O)NC(=O)[C@H](C)NC(=O)[C@H](CCCCNC(=O)COCCOCCNC(=O)COCCOCCNC(=O)CC[C@H](NC(=O)CCCCCCCCCCCCCCCCC(=O)O)C(=O)O)NC(=O)[C@H](CCC(=O)O)NC(=O)[C@H](CC(=O)O)NC(=O)[C@H](CC(C)C)NC(=O)[C@H](CC(C)C)NC(=O)[C@@H](NC(=O)[C@H](CO)NC(=O)[C@H](Cc1ccc(O)cc1)NC(=O)[C@H](CC(=O)O)NC(=O)[C@H](CO)NC(=O)[C@@H](NC(=O)[C@](C)(Cc1ccccc1)NC(=O)[C@@H](NC(=O)CNC(=O)[C@H](CCC(=O)O)NC(=O)C(C)(C)NC(=O)[C@@H](N)Cc1ccc(O)cc1)[C@@H](C)O)[C@@H](C)O)[C@@H](C)CC)[C@@H](C)CC)C(=O)N[C@@H](CCC(=O)O)C(=O)NCC(=O)NCC(=O)N1CCC[C@H]1C(=O)N[C@@H](CO)C(=O)N[C@@H](CO)C(=O)NCC(N)=O` [Example 307] (H-Y[Aib]EGT[αMeF]TSDYSILLDEK([AEEA-AEEA-γGlu-C18 diacid])AQ[Aib]AFIEYLIEGGPSSG-NH2), the Ki at human Gcg receptor was 117 nM; at human GIP receptor, 0.0773 nM; on human GLP-1R, 5.1 nM. For the same compound, the EC50 in assay [1] came to 0.0285 nM; in assay [2], 0.0437 nM.

On to `CC[C@H](C)[C@H](NC(=O)[C@H](CC(C)C)NC(=O)[C@H](Cc1ccc(O)cc1)NC(=O)[C@H](CCC(=O)O)NC(=O)[C@@H](NC(=O)[C@H](Cc1ccccc1)NC(=O)[C@H](CCC(=O)O)NC(=O)C(C)(C)NC(=O)[C@H](CCC(N)=O)NC(=O)[C@H](C)NC(=O)[C@H](CCCCNC(=O)COCCOCCNC(=O)COCCOCCNC(=O)CC[C@H](NC(=O)CCCCCCCCCCCCCCCCC(=O)O)C(=O)O)NC(=O)[C@H](CCCCN)NC(=O)[C@H](CC(=O)O)NC(=O)[C@H](CC(C)C)NC(=O)[C@H](CC(C)C)NC(=O)[C@@H](NC(=O)[C@H](CO)NC(=O)[C@H](Cc1ccc(O)cc1)NC(=O)[C@H](CC(=O)O)NC(=O)[C@H](CO)NC(=O)[C@@H](NC(=O)[C@](C)(Cc1ccccc1)NC(=O)[C@@H](NC(=O)CNC(=O)[C@H](CCC(=O)O)NC(=O)C(C)(C)NC(=O)[C@@H](N)Cc1ccc(O)cc1)[C@@H](C)O)[C@@H](C)O)[C@@H](C)CC)[C@@H](C)CC)C(=O)N[C@@H](CCC(=O)O)C(=O)NCC(=O)NCC(=O)N1CCC[C@H]1C(=O)N[C@@H](CO)C(=O)N[C@@H](CO)C(=O)NCC(N)=O` [Example 308] (H-Y[Aib]EGT[αMeF]TSDYSILLDKK([AEEA-AEEA-γGlu-C18 diacid])AQ[Aib]EFIEYLIEGGPSSG-NH2), for which the Ki was determined as 94.2 nM at human Gcg receptor, 0.0288 nM at human GIP receptor and 1.01 nM on human GLP-1R. Besides, the EC50 in assay [1] was determined as 0.0262 nM; in assay [2] it was 0.0392 nM.

Take `CC[C@H](C)[C@H](NC(=O)[C@H](CC(C)C)NC(=O)[C@H](Cc1ccc(O)cc1)NC(=O)[C@H](CCC(=O)O)NC(=O)[C@@H](NC(=O)[C@H](Cc1ccccc1)NC(=O)[C@H](C)NC(=O)C(C)(C)NC(=O)[C@H](CCC(N)=O)NC(=O)[C@H](C)NC(=O)[C@H](CCCCNC(=O)COCCOCCNC(=O)COCCOCCNC(=O)CC[C@H](NC(=O)CCCCCCCCCCCCCCCCC(=O)O)C(=O)O)NC(=O)[C@H](CCCCN)NC(=O)[C@H](CC(=O)O)NC(=O)[C@H](CC(C)C)NC(=O)[C@H](CC(C)C)NC(=O)[C@@H](NC(=O)[C@H](CO)NC(=O)[C@H](Cc1ccc(O)cc1)NC(=O)[C@H](CC(=O)O)NC(=O)[C@H](CO)NC(=O)[C@@H](NC(=O)[C@](C)(Cc1ccccc1)NC(=O)[C@@H](NC(=O)CNC(=O)[C@H](CCC(=O)O)NC(=O)C(C)(C)NC(=O)[C@@H](N)Cc1ccc(O)cc1)[C@@H](C)O)[C@@H](C)O)[C@@H](C)CC)[C@@H](C)CC)C(=O)N[C@@H](C)C(=O)NCC(=O)NCC(=O)N1CCC[C@H]1C(=O)N[C@@H](CO)C(=O)N[C@@H](CO)C(=O)NCC(N)=O` [Example 309] (H-Y[Aib]EGT[αMeF]TSDYSILLDKK([AEEA-AEEA-γGlu-C18 diacid])AQ[Aib]AFIEYLIAGGPSSG-NH2): the Ki came to 64.1 nM at human Gcg receptor, 0.0264 nM at human GIP receptor and 1.04 nM at human GLP-1R. Moreover, the EC50 in assay [1] was found to be 0.0389 nM; in assay [2] it was 0.033 nM.
